According to patent US20220202835A1, “INJECTABLE CLORSULON COMPOSITIONS, METHODS AND USES THEREOF” (Boehringer Ingelheim Animal Health USA Inc., priority 2019, published 2022):

Assays:
[1] = Study 2: clorsulon plasma pharmacokinetics in cattle (LC-MS); type: in vivo; details: for Maximum plasma concentrations: cattle
Protocol: Whole blood samples for analysis of plasma for analysis of clorsulon were collected from the jugular vein. Samples were collected in ˜7.5 mL lithium heparinized tubes for plasma preparation once prior to treatment on Day-2±1. Thereafter, blood samples were collected according to the Schedule of Operations (Table 3). The time of blood sampling was recorded, and care was taken to avoid cross-contamination of samples during sample collection, storage, and processing. Plasma was recovered from each sample, aliquoted (two aliquots) and stored frozen (at or below −20° C.) until required for assays. The cryo-tubes were labeled with Study Number, type of sample, date, Study Day/time of sampling, and animal ID.
One aliquot with plasma was used for analysis for clorsulon concentrations using currently High Performance Liquid Chromatography-Mass Spectrometry (LC-MS) methodology.
Plasma samples were assayed for clorsulon.
If quantifiable plasma concentrations were determined for an animal, pharmacokinetic analysis was performed as described below. Clorsulon plasma concentrations were determined for an animal at each sampling time, when appropriate. […] The mean concentration-time profiles will be obtained by averaging the concentrations at each sampling time point for all treated animals.
The therapeutic efficacy and pharmacokinetic parameters of clorsulon were evaluated when administered subcutaneously as 30% (w/v) clorsulon formulation to cattle experimentally infected with liver flukes (Fasciola hepatica). This study differs from Study Number 1 in that there is no administration of 10% (w/v) clorsulon and only immature (four week old) F. hepatica flukes were used.

Fasciola hepatica [2] = assay: Study 2: efficacy against four week old Fasciola hepatica in cattle
Fasciola hepatica [3] = assay: Study 1: efficacy against induced Fasciola hepatica infection in cattle (fluke counts at necropsy); details: subcutaneously to cattle at 6 and 8 mg/kg bodyweight as a 30% w/v solution

Maximum plasma concentrations ([1]; Group 2: 30% w/v solution, 8 mg clorsulon/kg SC): 5740 ± 1160 ng/mL
Maximum plasma concentrations ([1]; Group 3: 30% w/v solution, 6 mg clorsulon/kg SC): 4430 ± 988 ng/mL
Maximum plasma concentrations ([1]; Group 4: 30% w/v solution, 4 mg clorsulon/kg SC): 3140 ± 530 ng/mL
time at which maximum plasma concentrations were reached ([1]; Groups 2-4 (4, 6, 8 mg/kg SC), 12 out of 18 animals): ≤ 12 h
Structure (SMILES): Nc1cc(C(Cl)=C(Cl)Cl)c(S(N)(=O)=O)cc1S(N)(=O)=O [clorsulon, 4-amino-6-(1,2,2-trichloroethenyl)benzene-1,3-disulfonamide]
Eff (%) against Fasciola hepatica (Fasciola hepatica [2]; Group 2: 30% w/v solution, 8 mg/kg subcutaneously once on Day 0 (4 week old flukes)): 99.6%
Eff (%) against Fasciola hepatica (Fasciola hepatica [2]; Group 3: 30% w/v solution, 6 mg/kg subcutaneously once on Day 0 (4 week old flukes)): 99.9%
Eff (%) against Fasciola hepatica (Fasciola hepatica [2]; Group 4: 30% w/v solution, 4 mg/kg subcutaneously once on Day 0 (4 week old flukes)): 92.9%
efficacy against early immature (four and six week old) F. hepatica (Fasciola hepatica [3]): 98-100%
